This passage reports Ki, IC50 and inhibition results from ChEMBL document CHEMBL3826967, “Small molecule non-peptide inhibitors of botulinum neurotoxin serotype E: Structure-activity relationship and a pharmacophore model” (Bioorg Med Chem, 2016).

The structures appear in SMILES notation.

The target in the first test is T1, Botulinum neurotoxin type E (Clostridium botulinum, UniProt Q00496).
T1 sequence (Q00496 whole entry): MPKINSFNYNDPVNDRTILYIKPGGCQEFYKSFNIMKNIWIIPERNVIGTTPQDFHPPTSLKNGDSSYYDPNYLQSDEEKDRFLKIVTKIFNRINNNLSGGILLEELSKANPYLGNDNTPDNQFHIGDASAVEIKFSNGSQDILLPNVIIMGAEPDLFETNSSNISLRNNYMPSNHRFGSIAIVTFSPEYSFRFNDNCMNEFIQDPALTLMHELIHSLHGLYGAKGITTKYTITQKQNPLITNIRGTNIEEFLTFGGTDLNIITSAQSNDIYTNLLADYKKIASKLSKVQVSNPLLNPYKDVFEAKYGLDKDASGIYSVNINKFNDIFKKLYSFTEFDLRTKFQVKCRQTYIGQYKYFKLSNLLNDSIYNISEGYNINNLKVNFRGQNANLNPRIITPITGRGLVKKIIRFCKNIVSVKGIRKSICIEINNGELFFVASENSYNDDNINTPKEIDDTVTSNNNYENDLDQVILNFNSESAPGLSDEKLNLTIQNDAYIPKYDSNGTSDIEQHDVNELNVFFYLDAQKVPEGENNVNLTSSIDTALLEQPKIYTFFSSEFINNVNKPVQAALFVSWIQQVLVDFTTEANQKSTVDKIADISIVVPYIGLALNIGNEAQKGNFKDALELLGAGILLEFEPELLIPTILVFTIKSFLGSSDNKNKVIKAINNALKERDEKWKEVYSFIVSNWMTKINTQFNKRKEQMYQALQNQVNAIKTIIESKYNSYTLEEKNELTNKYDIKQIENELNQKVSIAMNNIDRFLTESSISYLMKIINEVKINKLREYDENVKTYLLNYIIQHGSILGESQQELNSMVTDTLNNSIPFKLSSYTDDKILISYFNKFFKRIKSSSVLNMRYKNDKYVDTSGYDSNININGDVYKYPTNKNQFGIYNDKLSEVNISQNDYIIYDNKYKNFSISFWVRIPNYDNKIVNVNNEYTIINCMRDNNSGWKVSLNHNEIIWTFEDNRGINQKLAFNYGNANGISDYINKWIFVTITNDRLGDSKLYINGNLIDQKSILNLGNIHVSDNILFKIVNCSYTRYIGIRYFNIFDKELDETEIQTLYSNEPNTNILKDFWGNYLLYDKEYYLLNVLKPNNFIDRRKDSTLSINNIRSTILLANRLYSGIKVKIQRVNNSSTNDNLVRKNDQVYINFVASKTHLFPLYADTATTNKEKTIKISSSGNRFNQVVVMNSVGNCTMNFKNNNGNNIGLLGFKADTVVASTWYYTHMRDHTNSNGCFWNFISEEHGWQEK
Briefly: Inhibition of protease activity of Clostridium botulinum BoNT/E light chain using SNAP-25 as substrate after 15 mins by Dixon plot analysis.
The Ki is the equilibrium dissociation constant of an inhibitor or competing ligand from its target. In the case of `O=C(O)c1ccccc1C(=O)c1ccc2c(c1)Cc1ccccc1-2`, the affinity corresponds to a Ki of 1290 nM.

The next test deals with T1, Botulinum neurotoxin type E. Briefly: (§1) Inhibition of endopeptidase activity of Clostridium botulinum BoNT/E light chain using SNAP-25 as substrate after 15 mins by HPLC analysis.
In general, IC50 refers to the concentration that inhibits the measured activity by half. A lower IC50 goes with higher potency. `O=C(O)c1cc(Cl)ccc1-c1ccc(Cl)cc1C(=O)Nc1ccc2c(c1)Cc1cc(Cl)cc(Cl)c1-2` came in with an IC50 of 3000 nM.

Turning to `O=c1c2cc(Cl)ccc2c2ccc(Cl)cc2c(=O)n1-c1ccc2c(c1)Cc1cc(Cl)cc(Cl)c1-2`, the concentration for half-maximal inhibition (IC50) is 9800 nM.

In the case of `O=C(O)c1cc([N+](=O)[O-])ccc1-c1ccc([N+](=O)[O-])cc1C(=O)Nc1ccc2c(c1)Cc1ccccc1-2`, the half-inhibitory concentration (IC50) worked out at 2700 nM.

In the case of `O=C(O)c1cc(Cl)ccc1-c1ccc(Cl)cc1C(=O)Nc1ccc2c(c1)Cc1ccccc1-2`, it took 3200 nM to reach half-maximal inhibition (IC50).

As to `O=C(Nc1ccccc1)c1cc2cc3ccccc3cc2cc1O`, it took 2400 nM to reach half-maximal inhibition (IC50).

A further test has as its target T2, Botulinum neurotoxin type E (Clostridium botulinum) (UniProt Q00496).
T2 sequence (whole entry): T1 sequence (Q00496 whole entry)
The test is described as §1.
As a reminder, the inhibition is how much of the control response was suppressed. Take `O=C(O)c1cc(Cl)ccc1-c1ccc(Cl)cc1C(=O)Nc1ccc2c(c1)Cc1cc(Cl)cc(Cl)c1-2`: the inhibition result was “Dose-dependent effect”.

The next test concerns the target T2, Botulinum neurotoxin type E (Clostridium botulinum). The test is described as follows: Inhibition of endopeptidase activity of Clostridium botulinum BoNT/E light chain using SNAP-25 as substrate at 20 uM after 15 mins by HPLC analysis.
On to `CC(=O)Nc1cc2c(cc1N)-c1ccccc1C2`, for which the inhibition was determined as 13.7%.

`O=c1c2cc(Cl)ccc2c2ccc(Cl)cc2c(=O)n1-c1ccc2c(c1)Cc1ccccc1-2` came in with an inhibition of 48%.

Regarding `O=C(O)c1cccc(F)c1C(=O)c1ccc2ccccc2c1`, the inhibition was found to be 43.9%.

For the compound `O=C(O)c1ccc(C(=O)c2ccccc2C(=O)O)cc1`, the inhibition worked out at 13.7%.

The compound `O=C(O)c1ccccc1C(=O)c1ccccc1` showed an inhibition of 15.9%.

`O=C(O)c1ccccc1C(=O)c1ccc(Cl)cc1` displayed an inhibition of 0%.

`O=C1c2ccccc2-c2cc(Br)c(NC(=O)C3CCCCC3C(=O)O)cc21` (centres undefined) had an inhibition of 19.3%.

For the compound `O=C(O)c1ccccc1-c1ccccc1C(=O)Nc1ccc2c(c1)C(=O)c1ccccc1-2`, the inhibition came to 20.2%.

`O=C1c2ccccc2-c2ccc(NC(=O)C3CCCCC3C(=O)O)cc21` (centres undefined) displayed an inhibition of 18.3%.

`O=C(O)c1ccccc1C(=O)Nc1cc2c(cc1Br)-c1ccccc1C2=O` registered an inhibition of 26.2%.

Take `CNc1ccc(C(=O)c2ccccc2C(=O)O)cc1[N+](=O)[O-]`: the inhibition worked out at 14.1%.

Compound `O=C(O)c1cc(Cl)ccc1-c1ccc(Cl)cc1C(=O)Nc1ccc2c(c1)Cc1cc(Cl)cc(Cl)c1-2` had an inhibition of 79.1%.

`O=C(NNC(=S)Nc1ccccc1Cl)c1ccncc1` gave an inhibition of 19%.

`O=c1c2cc(Cl)ccc2c2ccc(Cl)cc2c(=O)n1-c1ccc2c(c1)Cc1cc(Cl)cc(Cl)c1-2` registered an inhibition of 68.9%.

`O=C(O)c1cc([N+](=O)[O-])ccc1-c1ccc([N+](=O)[O-])cc1C(=O)Nc1ccc2c(c1)Cc1ccccc1-2` gave an inhibition of 82%.

Compound `Cc1cccc(C)c1NC(=S)NNC(=O)c1ccncc1` yielded an inhibition of 28%.

Compound `O=C(O)c1ccccc1C(=O)c1ccc(-c2ccccc2)cc1` registered an inhibition of 37.8%.

As to `Cc1cc2c(cc1C(=O)c1ccccc1C(=O)O)CCCC2`, the inhibition was 24.8%.

Compound `O=C(O)c1ccccc1C(=O)c1cc(Cl)cc(Cl)c1O` returned an inhibition of 19.2%.

As for `O=C(O)c1ccccc1C(=O)c1ccc(O)cc1O`, the inhibition is 14.7%.

Turning to `O=C(O)c1ccccc1C(=O)c1ccc2c(c1)Cc1ccccc1-2`, the inhibition worked out at 80.1%.

As for `O=C(O)/C=C/C(=O)Nc1ccc2c(c1)Cc1cc([N+](=O)[O-])ccc1-2`, the inhibition amounted to 19.5%.

Regarding `O=C(O)c1ccccc1C(=O)CCC(=O)c1ccccc1C(=O)O`, the inhibition was 21.2%.

In turn, `COc1ccc2c(c1)Cc1cc(NC(=O)c3ccccc3-c3ccccc3C(=O)O)ccc1-2` had an inhibition of 20.9%.

As to `O=C(O)c1ccccc1C(=O)c1ccc2oc(O)nc2c1`, the inhibition stood at 35%.

The compound `O=C(O)c1ccccc1C(=O)Nc1ccc2c(c1)C(=O)c1ccccc1-2` came in with an inhibition of 14.8%.

In the case of `O=C(O)c1ccccc1-c1ccccc1C(=O)Nc1ccc2c(c1)Cc1ccccc1-2`, the inhibition turned out to be 37.2%.

`O=C(O)c1cc(Cl)ccc1-c1ccc(Cl)cc1C(=O)Nc1ccc2c(c1)Cc1ccccc1-2` had an inhibition of 88.3%.

`c1ccc2c(c1)Cc1ccccc1-2` yielded an inhibition of 17.3%.

`O=C(O)c1ccccc1-c1ccccc1C(=O)Nc1ccc2c(c1)Cc1cc(F)ccc1-2` gave an inhibition of 47.6%.

`O=C(O)c1ccccc1C(=O)c1ccc2c(c1)CCC2` came in with an inhibition of 16.3%.

The compound `O=C(O)c1ccccc1-c1ccccc1C(=O)Nc1ccc2c(c1)C(O)c1ccccc1-2` (centres undefined) yielded an inhibition of 20%.

In turn, `O=C(O)C1CCCCC1C(=O)Nc1ccc2c(c1)Cc1ccccc1-2` (centres undefined) yielded an inhibition of 12%.

Consider `O=C(Nc1ccccc1)c1cc2cc3ccccc3cc2cc1O`, for which the inhibition came out at 70.1%.

For the compound `O=c1c2cc([N+](=O)[O-])ccc2c2ccc([N+](=O)[O-])cc2c(=O)n1-c1ccc2c(c1)Cc1ccccc1-2`, the inhibition was found to be 24.7%.

On to `O=C(Nc1ccc2c(c1)C(=O)c1ccccc1-2)c1ccccc1`, for which the inhibition amounted to 12.7%.

As for `O=C(O)c1ccccc1C(=O)c1ccc2c3c(cccc13)CC2`, the inhibition came out at 11.5%.
